Earlier results, collected in patent publication US5559147A, “Aromatic fluorine-containing organotin compounds and anti-tumour composition” (Pharmachemie B.V., priority 1994, dated 1996).

Legend:
[1] = tested on: MCF-7, a mammary tumour; settings: earlier work
[2] = tested on: WiDR, a colon carcinoma; settings: earlier work
[3] = tested on: two human tumour cell lines, MCF-7 and WiDR; settings: in words

| Molecule | ID50 [1] [µg/mL] | ID50 [2] [µg/mL] | ID50 compared with reference drug [3] |
| --- | --- | --- | --- |
| CCC[CH2][Sn]([CH2]CCC)([O]C(=O)c1cccc(F)c1F)[O]C(=O)c1cccc(F)c1F [(2,3-F2 C6 H3 CO2)2 SnBu2] | 0.023 | 0.283 | comparable to mitomycin C |
| CCC[CH2][Sn]([CH2]CCC)([O]C(=O)c1ccc(F)cc1)[O]C(=O)c1ccc(F)cc1 [(4-F-C6 H4 CO2)2 SnBu2] | 0.09 | 0.309 | comparable to those observed for etoposide |
| CCC[CH2][Sn+2][CH2]CCC.O=C([O-])c1c(F)c(F)c(F)c(F)c1C(=O)[O-] [Di-n-butyltintetrafluorophthalate] | 0.051 | 0.068 |  |
| {(2,3,4,5-F4 C6 HCO2 SnBu2)2 O}2 | 0.035 | 0.25 |  |
| {(2,3,6-F3 C6 H3 CO2 SnBu2)2 O}2 | 0.013 | 0.2 |  |
| {(2,3-F2 C6 H3 CO2 SnBu2)2 O}2 | 0.009 | 0.12 | comparable to mitomycin C |
| {(2-F-C6 H4 CH=CHC2 SnBu2)2 O}2 | 0.028 | 0.368 |  |
| {(4-F-C6 H4 CH2 CO2 SnBu2)2 O}2 | 0.038 | 0.268 |  |
| {(4-F-C6 H4 CO2 SnBu2)2 O}2 | 0.081 | 0.36 | comparable to those observed for etoposide |
